# Measured values taken from patent US20110028438A1, “MEDICAL USE OF 3-2,2,2-TRIMETHYLHYDRAZINIUM PROPIONATE SALTS” (JSC GRINDEKS, priority 2007, published 2011).
# Marks after values point to notes of the source that are not given here.
# Assays:
# [1] = system: adult male Wistar rats; assay: Myocardial infarction in vivo (coronary artery occlusion and 120 minute reperfusion); design: species or system rat; details: for Area of Necrosis, % of Area at Risk / Area of Risk/left ventricle area / Infarct size, % of control: rats, 100 mg/kg by mouth for 14 days; for Area of Necrosis, % of Area at Risk: after 120 minute reperfusion; for Area of Risk/left ventricle area: area at risk expressed as percentage of the left ventricle; for Infarct size, % of control: relative to saline control group; for Therapeutic effect in in vivo myocardial infarction model compared with Meldonium dihydrate: result in words
# Description: Experiments were conducted on adult male Wistar rats with initial weight of 300-350 g. During the experiment, the animals were kept in Standard crates in groups of 8. The feed was a standardized diet R70 (LABFOR, Lactamin AB, Sweden). The room temperature was kept at 21-23° C., relative humidity at 65±10%, 12 hour light/darkness cycle.
# Rats weighing approximately 300 g were randomly divided into 4 groups of 8 animals each. The first group received saline by mouth (control group), the second received 100 mg/kg Meldonium dihydrate by mouth, the third 100mg/kg Meldonium hydrogen fumarate and the fourth 100 mg/kg Meldonium dihydrogen phosphate received for 14 days.
# Rats were anesthetized with sodium pentobarbital (60 mg/kg i.p.). They were intubated and artificially respirated with rodent respirator (Rodent Ventilator 7025, Ugo Basile, (tally) with 15 mL/kg room air at a respiration rate of 55 breaths/min. Thoracic was open on the left side of breastbone by cutting fourth and fifths, if necessary, ribs. The pericard was open and 5/0 polypropylene suture (Surgipro II, Syneture) was passed under the left anterior descending coronary artery and threaded through a small plastic tube to permit reversible occlusion of the coronart artery. Coronary flow was measured using an ultrasound flow detector (HSE) and PowerLab 8/30 system from ADlnstruments.
# Occlusion was performed by constricting threads through a plastic tube.
# At the end of the 120 minute reperfusion, After reperfusion hearts were excised and retrogradely perfused via aorta at a constant pressure of 50 mm Hg, with oxygenated Krebs-Henseleit buffer (content in mmol/L: NaCl 118, Ca Cl2 2.52, MgCl2 1.64, NaHCO3 24.88, KH2PO4 1.18, glucose 10.0, EDTA 0.05) pH 7.3-7.5 at 37° C. Then after 10 min the left anterior descending coronary artery was relegated and the risk zone was delineated with 4 mL of 0.1% methylene blue solution in Krebs-Henseleit buffer infused via the aorta root. Hearts were sectioned transversely from the apex to the base of 2 mm thickness and incubated in 1% triphenyl-tetrazolium chloride in phosphate buffer (pH 7.4, 37° C.) for 10 minutes to stain viable tissue red and necrotic tissue white. Afterward, the right ventricle was cut off and photos of the left-ventricle slices were made with a Minolta 7D photo camera. Computerized planemetric analysis of photographs was performed using Image-Pro Plus 4.5.1 software to determine the area at risk (AR) and area of necrosis (AN) expressed as percentage of the left ventricle (LV). Obtained values were then used to calculate the infarct size (IS) as percentage of risk area according to formula: […]
# [2] = as disclosed in EP 1667960 A; cited from earlier work
smiles,measurement,setting,value
"C[N+](C)(C)NCCC(=O)[O-] [Meldonium dihydrate, 3-(2,2,2-Trimethylhydrazinium) propionate dihydrate, reference compound]","Area of Necrosis, % of Area at Risk",[1],64.0 ± 2.7 % of Area at Risk
same,Area of Risk/left ventricle area,[1],58.0 ± 2.2
same,"Infarct size, % of control",[1],99.0 ± 4.2 % of control
"C[N+](C)(C)NCCC(=O)O.O=C([O-])/C=C/C(=O)O [Meldonium hydrogen fumarate, 3-(2,2,2-trimethylhydrazinium) propionate hydrogen fumarate]",Therapeutic effect in in vivo myocardial infarction model compared with Meldonium dihydrate,[1],more effective as Meldonium dihydrate
same,"Area of Necrosis, % of Area at Risk",[1],52.2 ± 4.3 % of Area at Risk
same,Area of Risk/left ventricle area,[1],62.0 ± 3.5
same,"Infarct size, % of control",[1],81.0 ± 6.6 % of control
same,Stability comparatively with Meldonium dihydrate,[2],more stable substance comparatively with Meldonium dihydrate
"C[N+](C)(C)NCCC(=O)O.O=P([O-])(O)O [Meldonium dihydrogen phosphate, 3-(2,2,2-trimethylhydrazinium) propionate dihydrogen phosphate]",Therapeutic effect in in vivo myocardial infarction model compared with Meldonium dihydrate,[1],statistically better therapeutically effect than Meldonium dihydrate
same,"Area of Necrosis, % of Area at Risk",[1],"50.9 ± 2.6*^,# % of Area at Risk"
same,Area of Risk/left ventricle area,[1],57.0 ± 3.0
same,"Infarct size, % of control",[1],"79.0 ± 4.1*^,# % of control"
same,Stability comparatively with Meldonium dihydrate,[2],more stable substance comparatively with Meldonium dihydrate
